Test results from publication PMC11785709, “Angelica gigas Nakai (Korean Dang-gui) Root Alcoholic Extracts in Health Promotion and Disease Therapy – active Phytochemicals and In Vivo Molecular Targets” (Pharmaceutical Research, 2025).
Converted amounts (≈) assume the structure as drawn. “And” between values parts separate entries of the source, which are not always exact repeats. Equal values may be shown once. “Also recorded” adds a separate entry of the source. Read-outs that look alike come from different tables or passages of the source.

Key:
[1] = test system: kainic acid (KA)-induced status epilepticus; parameters: method as in PMID 25171200; settings: D ip 20 mg/kg 30 min prior to KA; cited from earlier work
HepG2 cells = test system: HepG2 cells; parameters: method as in earlier work; settings: free fatty acid mixture (oleate:palmitate = 2:1); cited from earlier work
[2] = test system: destabilization of medial meniscus (DMM) OA; parameters: method as in PMID 33878544; settings: daily gavage, 20 mg/kg, 8 weeks after DMM; cited from earlier work
MAO-B = test system: MAO-B; parameters: method as in PMID 28109809; settings: screened at 10 μM; cited from earlier work
[3] = test system: global cerebral ischemia BOCCA model; parameters: method as in PMID 33918660; settings: cited from earlier work
[4] = cited from earlier work
carboxyesterase-2 (CES2) = settings: cited from earlier work
[5] = test system: high fat-diet induced obesity; parameters: method as in PMID 21972114; settings: HFD plus D 200 mg/kg (ppm), 7 weeks; cited from earlier work
[6] = test system: most sensitive bacterial strain; parameters: method as in PMID 12877552; settings: cited from earlier work
AChE [7] = test system: AChE; parameters: method as in PMID 11374978; settings: read-out: AChE inhibition IC50; cited from earlier work
AR; ERα = settings: cited from earlier work
[8] = test system: adipose stem cells (ASCs); parameters: method as in PMID 31861646; settings: cited from earlier work
bacteria [9] = experiment: bactericidal activity of D, MIC (Thailand group); assay type: cell-based; settings: converted value in brackets
[10] = oral AGN 100 mg per rat (~ 300 mg/kg bw); cited from earlier work
CYP2C19 and 3A4 = settings: cited from earlier work
paclitaxel-CINP = test system: paclitaxel-CINP; parameters: method as in PMID 33806325; settings: cited from earlier work
human MAO-A = test system: human MAO-A; parameters: method as in PMID 28109809; settings: cited from earlier work
[11] = test system: most sensitive bacterial strain; experiment: bactericidal activity of D, MIC; assay type: cell-based; settings: converted value in brackets; read-out: minimal inhibitory concentration
TRPV1 = test system: TRPV1; parameters: method as in PMID 33806325; settings: capsaicin-induced, F11 cell culture; read-out: TRPV1-Ca2+ release IC50; cited from earlier work
[12] = test system: collagen/epinephrine-induced thromboembolism; parameters: method as in PMID 34575088; settings: D at 12.5 mg/kg; cited from earlier work
[13] = cited from earlier work; remark: listed apart in the source
hair growth = test system: hair growth; parameters: method as in PMID 32823713; settings: cited from earlier work
bacteria [14] = test system: bacteria; parameters: method as in doi:10.7324/JAPS201331012; settings: cited from earlier work
GDH = test system: GDH; parameters: method as in PMID 36455296; settings: read-out: GDH inhibition IC50; cited from earlier work
OVX-induced bone loss = test system: OVX-induced bone loss; parameters: method as in PMID 37866743; settings: oral nodakenin; cited from earlier work
[15] = rat, in vivo, iv; cited from earlier work
CP-treated mice = test system: CP-treated mice; parameters: method as in PMID 34875347; settings: cited from earlier work
[16] = test system: bone marrow stem cells (BMSCs); parameters: method as in PMID 37866743; settings: cell culture exposure; cited from earlier work
[17] = test system: scopolamine-induced memory disruption; parameters: method as in PMID 17382968; settings: 10 mg/kg, po; cited from earlier work
[18] = test system: RANKL-induced osteoclastogenesis; parameters: method as in PMID 37866743; settings: cell culture model; cited from earlier work
breast cancer cell = test system: breast cancer cell; parameters: method as in PMID 36830050; settings: concentration-dependent; cited from earlier work
HFD-induced obese mice = test system: HFD-induced obese mice; parameters: method as in PMID 34165214; settings: daily oral 10 and 20 mg/kg, 5 weeks; cited from earlier work
AChE [19] = test system: AChE; parameters: method as in PMID 17382968; settings: in vitro test; cited from earlier work
[20] = test system: MDA-MB231 sc breast cancer xenograft; settings: 30 mg/kg ip twice weekly, 5-week assay; cited from earlier work
[21] = rat, in vivo, po, cited from earlier work
TNBS-induced colitis = test system: TNBS-induced colitis; parameters: method as in PMID 39042157; settings: cited from earlier work
AChE [22] = test system: AChE; parameters: method as in PMID 17382968; settings: ex vivo, 6 h after dose; cited from earlier work
[23] = test system: acute thermal pain models and CINP; parameters: method as in PMID 36249788; settings: once-daily ip; hot plate, tail-flick and CINP mice; cited from earlier work
[24] = topical 0.15% D or 2% AGN root extract

In the case of `CC(C)=CC(=O)O[C@H]1Cc2cc3ccc(=O)oc3cc2OC1(C)C` [D, decursin], the behavioral seizure activity [1] is listed as “decreased behavioral seizure activity”, the lipid accumulation (HepG2 cells) is listed as “suppressed lipid accumulation” and the “destruction of articular cartilage” value [2] is listed as “attenuated the destruction of articular cartilage”. The “inhibitory activity on MAO-B” value (MAO-B) was “lacked any inhibitory activity”, the “protection of CA1 pyramidal neurons” value ([3]; oral post-ischemia, AGN 350 and 400 mg/kg or D 25 mg/kg) was “spared the pyramidal neurons from ischemic death; also recorded: detectable protection” and the “spatial memory (8-ARMT) and learning memory (PAT)” value ([3]; post-treatment, 5 days following BOCCA) was “preserved spatial memory”. For the same compound, the t1/2 ([4]; 4.6 g AGN root powder per subject) was 3.03 h, the tmax ([4]; in vivo) was 0.44 h and the “CES2 contribution to metabolism to DOH” value (carboxyesterase-2 (CES2)) was “further contributed”. For the same compound, the weight gain [5] was “decreased weight gain”, the minimal inhibitory concentration [6] was ~ 12.5 mg/L and the IC50 (AChE [7]) was 390 µM. The IC50 (AR; ERα; antagonist/degrader) was ~5 µM, the “mode of action on AR and ERα” value (AR; ERα; responsive cancer cell culture models) was “antagonists/degraders” and the adipocyte differentiation [8] was “significantly inhibited adipocyte differentiation”. The MIC (bacteria [9]) was ~98 µM (≈ 32.2 µg/mL), the “elimination of plasma D” value [10] was “barely detectable after 7 h” and the “time of peak absorption, plasma D” value [10] was “around 4 h”. The “Cyp isoforms for metabolism to DOH” value (CYP2C19 and 3A4) was “major human isoforms”, the mechanical allodynia relief (paclitaxel-CINP; first it injection of D 50 mg/kg) was “no relief” and the “duration of blunted allodynia” value (paclitaxel-CINP; second and third it injections) was “up to 3 h”. The IC50 (human MAO-A; read-out: MAO-A inhibition IC50) was 1.89 µM, the Ki (human MAO-A; reversible and competitive inhibitor) was 0.17 µM and the MIC [11] was ~38 µM (≈ 12.5 µg/mL). For the same compound, the IC50 (TRPV1) was ~1 µM, the protection against thromboembolism [12] was “replicated the protective effect” and the “relative circulating Cmax and AUC” value ([13]; in vivo) was ~1 ×. For the same compound, the “relative plasma Cmax” value ([13]; in vivo) was 1 x, the Cmax ([13]; read-out: mean peak concentration Cmax, 10 men and 10 women, 800 mg INM176 AGN oral) was 5.3 nM and the “time at which hair growth was complete” value (hair growth; [24]) was 17 days. For the same compound, the “time from which hair growth was visibly facilitated” value (hair growth; [24]) was 7 days, the hair growth (hair growth; topical twice a day 17 days, 0.15% D or 2% AGN root extract) was “promoted hair growth in equal efficacy” and the MIC (bacteria [14]) was ~ 32 mg/L. For the same compound, the IC50 (GDH) was ~1 µM and 1 µM.
For `CC(C)(O[C@@H]1O[C@H](CO)[C@@H](O)[C@H](O)[C@H]1O)[C@H]1Cc2cc3ccc(=O)oc3cc2O1` [Nodakenin, nodakenin], the bone mass (OVX-induced bone loss) is listed as “elevated mouse bone mass”, the t1/2 [15] is listed as 3.3 h and the “levels of IFN-γ, IL-12, IL-2, IL-6, and TNF-α in serum and spleen” value (CP-treated mice) is listed as “increased”. The osteogenic differentiation [16] was “promoted osteogenic differentiation”, the scopolamine-induced memory disruption [17] was “ameliorate” and the osteoclastogenesis [18] was “inhibited RANKL-induced osteoclastogenesis”. For the same compound, the “apparent volume of distribution Vd” value ([4]; in vivo) was 2800 L, the t1/2 ([4]; in vivo) was 6.28 h and the “breast cancer cell viability” value (breast cancer cell) was “inhibited breast cancer cell viability”. The “suppression of weight gain, dyslipidemia and fatty liver” value (HFD-induced obese mice) was “comparable potency to orlistat”, the IC50 (AChE [7]) was 68 µM and the IC50 (AChE [19]) was 84.7 µM. The xenograft growth inhibition [20] was ~ 88%, the t1/2 ([21]; 2.5 mg/kg) was 4.6 h and the t1/2 ([21]; 10 mg/kg) was 6.2 h. The “downregulation of COX-2 mRNA expression” value (TNBS-induced colitis; colon sample, 40 mg/kg) was 1.98 fold, the “downregulation of IL-1β mRNA expression” value (TNBS-induced colitis; colon sample, 40 mg/kg) was 1.29 fold and the “downregulation of IL-18 mRNA expression” value (TNBS-induced colitis; colon sample, 40 mg/kg) was 1.17 fold. The “downregulation of NFƙB mRNA expression” value (TNBS-induced colitis; colon sample, 40 mg/kg) was 1.24 fold, the “downregulation of NLRP3 mRNA expression” value (TNBS-induced colitis; colon sample, 40 mg/kg) was 1.78 fold and the “downregulation of iNOS mRNA expression” value (TNBS-induced colitis; colon sample, 40 mg/kg) was 1.2 fold. The “disease activity index (DAI) score” value (TNBS-induced colitis; gavage 10, 20, and 40 mg/kg) was “lowered the DAI score” and the “brain slice AChE activity” value (AChE [22]) was “lowered”.
In the case of `CN1CC[C@]23c4c5ccc(O)c4O[C@H]2[C@@H](O)C=C[C@H]3[C@H]1C5` [morphine, reference compound], the “time to tolerance development” value [23] is listed as < 3 days.
